Key:
CCRF-CEM = assay: Anticancer activity against human CCRF-CEM cells assessed as cell growth inhibition incubated for 48 hrs by SRB assay; type: functional
HL-60(TB) = assay: Anticancer activity against human HL-60(TB) cells assessed as cell growth inhibition incubated for 48 hrs by SRB assay; type: functional
K562 = assay: Anticancer activity against human K562 cells assessed as cell growth inhibition incubated for 48 hrs by SRB assay; type: functional; settings: read-out: LC50 (the source's name)
MOLT-4 = assay: Anticancer activity against human MOLT-4 cells assessed as cell growth inhibition incubated for 48 hrs by SRB assay; type: functional
RPMI-8226 = assay: Anticancer activity against human RPMI-8226 cells assessed as cell growth inhibition incubated for 48 hrs by SRB assay; type: functional
SR = assay: Anticancer activity against human SR cells assessed as cell growth inhibition incubated for 48 hrs by SRB assay; type: functional; settings: read-out: LC50 (the source's name)
A549 = assay: Anticancer activity against human A549 cells assessed as cell growth inhibition incubated for 48 hrs by SRB assay; type: functional
EKVX = assay: Anticancer activity against human EKVX cells assessed as cell growth inhibition incubated for 48 hrs by SRB assay; type: functional; settings: read-out: LC50 (the source's name)
HOP-62 = assay: Anticancer activity against human HOP-62 cells assessed as cell growth inhibition incubated for 48 hrs by SRB assay; type: functional
HOP-92 = assay: Anticancer activity against human HOP-92 cells assessed as cell growth inhibition incubated for 48 hrs by SRB assay; type: functional; settings: read-out: LC50 (the source's name)
NCI-H226 = assay: Anticancer activity against human NCI-H226 cells assessed as cell growth inhibition incubated for 48 hrs by SRB assay; type: functional; settings: read-out: LC50 (the source's name)
NCI-H23 = assay: Anticancer activity against human NCI-H23 cells assessed as cell growth inhibition incubated for 48 hrs by SRB assay; type: functional
NCI-H322M = assay: Anticancer activity against human NCI-H322M cells assessed as cell growth inhibition incubated for 48 hrs by SRB assay; type: functional; settings: read-out: LC50 (the source's name)
NCI-H460 = assay: Anticancer activity against human NCI-H460 cells assessed as cell growth inhibition incubated for 48 hrs by SRB assay; type: functional
NCI-H522 = assay: Anticancer activity against human NCI-H522 cells assessed as cell growth inhibition incubated for 48 hrs by SRB assay; type: functional; settings: read-out: LC50 (the source's name)
COLO 205 = assay: Anticancer activity against human COLO 205 cells assessed as cell growth inhibition incubated for 48 hrs by SRB assay; type: functional
HCC 2998 [1] = assay: Anticancer activity against human HCC 2998 cells assessed as cell growth inhibition incubated for 48 hrs by SRB assay; type: functional
HCT-116 = assay: Anticancer activity against human HCT-116 cells assessed as cell growth inhibition incubated for 48 hrs by SRB assay; type: functional
HCT-15 = assay: Anticancer activity against human HCT-15 cells assessed as cell growth inhibition incubated for 48 hrs by SRB assay; type: functional
HT-29 = assay: Anticancer activity against human HT-29 cells assessed as cell growth inhibition incubated for 48 hrs by SRB assay; type: functional
KM12 = assay: Anticancer activity against human KM12 cells assessed as cell growth inhibition incubated for 48 hrs by SRB assay; type: functional
SW-620 = assay: Anticancer activity against human SW-620 cells assessed as cell growth inhibition incubated for 48 hrs by SRB assay; type: functional
SF-295 = assay: Anticancer activity against human SF-295 cells assessed as cell growth inhibition incubated for 48 hrs by SRB assay; type: functional; settings: read-out: LC50 (the source's name)
SF-539 = assay: Anticancer activity against human SF-539 cells assessed as cell growth inhibition incubated for 48 hrs by SRB assay; type: functional
SNB-19 = assay: Anticancer activity against human SNB-19 cells assessed as cell growth inhibition incubated for 48 hrs by SRB assay; type: functional; settings: read-out: LC50 (the source's name)
U-251 = assay: Anticancer activity against human U-251 cells assessed as cell growth inhibition incubated for 48 hrs by SRB assay; type: functional
Malme-3M = assay: Anticancer activity against human Malme-3M cells assessed as cell growth inhibition incubated for 48 hrs by SRB assay; type: functional
M14 = assay: Anticancer activity against human M14 cells assessed as cell growth inhibition incubated for 48 hrs by SRB assay; type: functional
MDA-MB-435 = assay: Anticancer activity against human MDA-MB-435 cells assessed as cell growth inhibition incubated for 48 hrs by SRB assay; type: functional
SK-MEL-2 = assay: Anticancer activity against human SK-MEL-2 cells assessed as cell growth inhibition incubated for 48 hrs by SRB assay; type: functional; settings: read-out: LC50 (the source's name)
SK-MEL-28 = assay: Anticancer activity against human SK-MEL-28 cells assessed as cell growth inhibition incubated for 48 hrs by SRB assay; type: functional; settings: read-out: LC50 (the source's name)
SK-MEL-5 [2] = assay: Anticancer activity against human SK-MEL-5 cells assessed as cell growth inhibition incubated for 48 hrs by SRB assay; type: functional
UACC-62 = assay: Anticancer activity against human UACC-62 cells assessed as cell growth inhibition incubated for 48 hrs by SRB assay; type: functional
IGROV-1 = assay: Anticancer activity against human IGROV-1 cells assessed as cell growth inhibition incubated for 48 hrs by SRB assay; type: functional; settings: read-out: LC50 (the source's name)
OVCAR-3 = assay: Anticancer activity against human OVCAR-3 cells assessed as cell growth inhibition incubated for 48 hrs by SRB assay; type: functional
OVCAR-5 = assay: Anticancer activity against human OVCAR-5 cells assessed as cell growth inhibition incubated for 48 hrs by SRB assay; type: functional; settings: read-out: LC50 (the source's name)
NCI/ADR-RES = assay: Anticancer activity against human NCI/ADR-RES cells assessed as cell growth inhibition incubated for 48 hrs by SRB assay; type: functional
786-0 = assay: Anticancer activity against human 786-0 cells assessed as cell growth inhibition incubated for 48 hrs by SRB assay; type: functional
A498 = assay: Anticancer activity against human A498 cells assessed as cell growth inhibition incubated for 48 hrs by SRB assay; type: functional
ACHN = assay: Anticancer activity against human ACHN cells assessed as cell growth inhibition incubated for 48 hrs by SRB assay; type: functional
CAKI-1 = assay: Anticancer activity against human CAKI-1 cells assessed as cell growth inhibition incubated for 48 hrs by SRB assay; type: functional
RXF 393 [3] = assay: Anticancer activity against human RXF 393 cells assessed as cell growth inhibition incubated for 48 hrs by SRB assay; type: functional; settings: read-out: LC50 (the source's name)
SN12C = assay: Anticancer activity against human SN12C cells assessed as cell growth inhibition incubated for 48 hrs by SRB assay; type: functional
TK-10 = assay: Anticancer activity against human TK-10 cells assessed as cell growth inhibition incubated for 48 hrs by SRB assay; type: functional; settings: read-out: LC50 (the source's name)
UO-31 = assay: Anticancer activity against human UO-31 cells assessed as cell growth inhibition incubated for 48 hrs by SRB assay; type: functional; settings: read-out: LC50 (the source's name)
PC-3 = assay: Anticancer activity against human PC-3 cells assessed as cell growth inhibition incubated for 48 hrs by SRB assay; type: functional; settings: read-out: LC50 (the source's name)
DU-145 = assay: Anticancer activity against human DU-145 cells assessed as cell growth inhibition incubated for 48 hrs by SRB assay; type: functional
MCF7 = assay: Anticancer activity against human MCF7 cells assessed as cell growth inhibition incubated for 48 hrs by SRB assay; type: functional
MDA-MB-231 = assay: Anticancer activity against human MDA-MB-231 cells assessed as cell growth inhibition incubated for 48 hrs by SRB assay; type: functional
BT-549 = assay: Anticancer activity against human BT-549 cells assessed as cell growth inhibition incubated for 48 hrs by SRB assay; type: functional; settings: read-out: LC50 (the source's name)
MDA-MB-468 = assay: Anticancer activity against human MDA-MB-468 cells assessed as cell growth inhibition incubated for 48 hrs by SRB assay; type: functional; settings: read-out: LC50 (the source's name)
SK-MEL-5 [4] = assay: Cytotoxicity against human SK-MEL-5 cells assessed as inhibition of cell viability incubated for 72 hrs under hypoxia condition by MTT assay; type: functional, cell-based; settings: SK-MEL-5, 72 h
HCC 2998 [5] = assay: Cytotoxicity against human HCC 2998 cells assessed as inhibition of cell viability incubated for 72 hrs under hypoxia condition by MTT assay; type: functional, cell-based; settings: HCC 2998, 72 h
RXF 393 [6] = assay: Cytotoxicity against human RXF 393 cells assessed as inhibition of cell viability incubated for 72 hrs under hypoxia condition by MTT assay; type: functional, cell-based; settings: RXF 393, 72 h
[7] = read-out: LC50 (the source's name)

O=c1[nH]cc(F)c(=O)[nH]1 [FLUOROURACIL]
GI50 (CCRF-CEM): 9970 nM | CC50 (CCRF-CEM; [7]): > 100000 nM | GI50 (HL-60(TB)): 2300 nM | CC50 (HL-60(TB); [7]): > 100000 nM | CC50 (K562): > 100000 nM | GI50 (MOLT-4): 350 nM | CC50 (MOLT-4; [7]): > 100000 nM | GI50 (RPMI-8226): 40 nM | CC50 (SR): > 100000 nM | GI50 (A549): 180 nM | CC50 (EKVX): > 100000 nM | GI50 (HOP-62): 390 nM | CC50 (HOP-62; [7]): > 100000 nM | CC50 (HOP-92): > 100000 nM | CC50 (NCI-H226): > 100000 nM | GI50 (NCI-H23): 330 nM | CC50 (NCI-H23; [7]): > 100000 nM | CC50 (NCI-H322M): > 100000 nM | GI50 (NCI-H460): 50 nM | CC50 (NCI-H460; [7]): > 100000 nM | CC50 (NCI-H522): > 100000 nM | GI50 (COLO 205): 150 nM | CC50 (COLO 205; [7]): > 100000 nM | GI50 (HCC 2998 [1]): 50 nM | CC50 (HCC 2998 [1]; [7]): > 100000 nM | GI50 (HCT-116): 220 nM | GI50 (HCT-15): 110 nM | CC50 (HCT-15; [7]): > 100000 nM | GI50 (HT-29): 170 nM | CC50 (HT-29; [7]): > 100000 nM | GI50 (KM12): 210 nM | CC50 (KM12; [7]): > 100000 nM | GI50 (SW-620): 920 nM | CC50 (SW-620; [7]): > 100000 nM | CC50 (SF-295): > 100000 nM | GI50 (SF-539): 60 nM | CC50 (SF-539; [7]): > 100000 nM | CC50 (SNB-19): > 100000 nM | GI50 (U-251): 920 nM | CC50 (U-251; [7]): > 100000 nM | GI50 (Malme-3M): 50 nM | CC50 (Malme-3M; [7]): > 100000 nM | GI50 (M14): 980 nM | CC50 (M14; [7]): > 100000 nM | GI50 (MDA-MB-435): 70 nM | CC50 (SK-MEL-2): > 100000 nM | CC50 (SK-MEL-28): > 100000 nM | GI50 (SK-MEL-5 [2]): 460 nM | GI50 (UACC-62): 520 nM | CC50 (IGROV-1): > 100000 nM | GI50 (OVCAR-3): 10 nM | CC50 (OVCAR-5): > 100000 nM | GI50 (NCI/ADR-RES): 310 nM | CC50 (NCI/ADR-RES; [7]): > 100000 nM | GI50 (786-0): 720 nM | CC50 (786-0; [7]): > 100000 nM | GI50 (A498): 350 nM | CC50 (A498; [7]): > 100000 nM | GI50 (ACHN): 270 nM | CC50 (ACHN; [7]): > 100000 nM | GI50 (CAKI-1): 70 nM | CC50 (CAKI-1; [7]): > 100000 nM | CC50 (RXF 393 [3]): > 100000 nM | GI50 (SN12C): 490 nM | CC50 (TK-10): > 100000 nM | CC50 (UO-31): > 100000 nM | CC50 (PC-3): > 100000 nM | GI50 (DU-145): 360 nM | GI50 (MCF7): 70 nM | GI50 (MDA-MB-231): 6600 nM | CC50 (BT-549): > 100000 nM | CC50 (MDA-MB-468): > 100000 nM | IC50 (SK-MEL-5 [4]): 15300 nM | IC50 (HCC 2998 [5]): 12600 nM | IC50 (RXF 393 [6]): 28200 nM
